Legend:
[1] = target: T1, Protein deacetylase HDAC6 (Homo sapiens, UniProt Q9UBN7); assay: Inhibition of recombinant HDAC6 by fluorimetric assay
T1 sequence (Q9UBN7 whole entry): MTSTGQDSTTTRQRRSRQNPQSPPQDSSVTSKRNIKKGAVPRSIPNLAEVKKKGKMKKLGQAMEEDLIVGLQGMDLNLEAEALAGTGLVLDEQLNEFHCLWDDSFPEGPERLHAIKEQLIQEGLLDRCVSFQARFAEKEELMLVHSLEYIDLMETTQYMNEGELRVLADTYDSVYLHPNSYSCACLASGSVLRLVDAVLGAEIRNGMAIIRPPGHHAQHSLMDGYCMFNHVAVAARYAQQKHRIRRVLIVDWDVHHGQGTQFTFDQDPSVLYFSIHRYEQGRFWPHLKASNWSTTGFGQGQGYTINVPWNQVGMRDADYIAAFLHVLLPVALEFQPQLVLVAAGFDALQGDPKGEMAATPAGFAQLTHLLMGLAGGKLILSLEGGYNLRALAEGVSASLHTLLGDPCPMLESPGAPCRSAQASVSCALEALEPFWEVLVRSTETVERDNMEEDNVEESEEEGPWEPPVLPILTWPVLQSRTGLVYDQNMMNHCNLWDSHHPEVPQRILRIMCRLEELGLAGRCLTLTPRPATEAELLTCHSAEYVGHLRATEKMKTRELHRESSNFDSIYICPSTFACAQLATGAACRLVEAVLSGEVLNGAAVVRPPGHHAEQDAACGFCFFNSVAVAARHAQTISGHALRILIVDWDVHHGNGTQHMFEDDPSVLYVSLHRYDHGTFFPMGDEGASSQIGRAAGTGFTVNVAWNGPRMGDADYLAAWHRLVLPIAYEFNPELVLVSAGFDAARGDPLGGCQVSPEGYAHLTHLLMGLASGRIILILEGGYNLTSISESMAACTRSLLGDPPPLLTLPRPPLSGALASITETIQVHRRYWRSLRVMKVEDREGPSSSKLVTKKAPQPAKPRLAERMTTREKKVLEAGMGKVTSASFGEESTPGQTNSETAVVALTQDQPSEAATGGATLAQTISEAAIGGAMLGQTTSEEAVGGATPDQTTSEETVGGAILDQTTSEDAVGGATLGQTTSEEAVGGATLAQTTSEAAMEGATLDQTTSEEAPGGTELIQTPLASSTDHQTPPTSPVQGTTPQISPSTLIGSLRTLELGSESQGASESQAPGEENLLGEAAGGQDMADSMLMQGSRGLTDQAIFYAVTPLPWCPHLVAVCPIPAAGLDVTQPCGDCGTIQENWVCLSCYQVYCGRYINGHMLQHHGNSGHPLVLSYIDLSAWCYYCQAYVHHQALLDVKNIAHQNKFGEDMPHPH

Histone deacetylase 8 = target: T2, Histone deacetylase 8 (Homo sapiens, UniProt Q9BY41); assay: Inhibition of recombinant HDAC8 by fluorimetric assay
T2 sequence (Q9BY41 whole entry): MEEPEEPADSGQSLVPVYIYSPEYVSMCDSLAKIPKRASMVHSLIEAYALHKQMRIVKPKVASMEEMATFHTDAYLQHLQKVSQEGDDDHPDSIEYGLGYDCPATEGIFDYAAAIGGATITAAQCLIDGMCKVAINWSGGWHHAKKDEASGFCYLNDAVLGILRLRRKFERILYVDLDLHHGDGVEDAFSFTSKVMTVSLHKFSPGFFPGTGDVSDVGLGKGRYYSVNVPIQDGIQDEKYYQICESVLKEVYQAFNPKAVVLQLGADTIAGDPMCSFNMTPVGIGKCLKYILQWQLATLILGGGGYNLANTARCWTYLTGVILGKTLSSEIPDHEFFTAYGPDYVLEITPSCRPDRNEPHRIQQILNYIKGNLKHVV

Mus musculus [2] = assay: Toxicity in athymic mouse xenografted with human HCT116 cells assessed as maximum body weight loss at 70 mg/kg, ip qd for 21 days measured on day 15; type: organism-based, HCT-116; parameters: dose 70 mg/kg, route intraperitoneal; details: in vivo, 504 h
HCT-116 [3] = assay: Antitumor activity against human HCT116 cells xenografted in athymic mouse assessed as tumor growth inhibition at 130 mg/kg, ip qd for 21 days measured on day 22; type: functional; details: HCT-116, ip, route intraperitoneal, read-out: TGI
Histone deacetylase 5 = Histone deacetylase 5 (Homo sapiens, UniProt Q9UQL6); assay: Inhibition of recombinant HDAC5 by fluorimetric assay
Histone deacetylase 11 = target: T3, Histone deacetylase 11 (Homo sapiens, UniProt Q96DB2); assay: Inhibition of recombinant HDAC11 by fluorimetric assay
T3 sequence (Q96DB2 whole entry): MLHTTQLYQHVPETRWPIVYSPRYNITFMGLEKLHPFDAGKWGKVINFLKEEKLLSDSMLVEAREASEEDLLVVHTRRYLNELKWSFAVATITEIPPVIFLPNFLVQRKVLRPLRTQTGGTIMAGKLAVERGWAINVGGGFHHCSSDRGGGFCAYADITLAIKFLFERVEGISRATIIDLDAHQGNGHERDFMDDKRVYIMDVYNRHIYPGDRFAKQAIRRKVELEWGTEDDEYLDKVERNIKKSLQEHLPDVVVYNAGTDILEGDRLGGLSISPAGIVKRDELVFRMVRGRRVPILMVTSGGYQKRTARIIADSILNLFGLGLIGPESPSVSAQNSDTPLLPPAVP

Mus musculus [4] = assay: Toxicity in athymic mouse xenografted with human HCT116 cells assessed as maximum body weight loss at 100 mg/kg, po qd for 21 days; type: organism-based, HCT-116; parameters: dose 100 mg/kg, route oral; details: in vivo, 504 h
[5] = Toxicity in ip dosed athymic mouse assessed as maximum tolerated dose; type: organism-based; details: in vivo
Mus musculus [6] = assay: Toxicity in athymic mouse xenografted with human HCT116 cells assessed as maximum body weight loss at 130 mg/kg, ip qd for 21 measured on day 19; type: organism-based, HCT-116; parameters: dose 130 mg/kg, route intraperitoneal; details: in vivo
Mus musculus [7] = assay: Toxicity in athymic xenografted with human HCT116 cells mouse assessed as maximum body weight loss at 200 mg/kg, po qd for 21 days measured on day 7; type: organism-based, HCT-116; parameters: dose 200 mg/kg, route oral; details: in vivo, 504 h
HCT-116 [8] = assay: Antitumor activity against human HCT116 cells xenografted in athymic mouse assessed as tumor growth inhibition at 200 mg/kg, po qd for 21 days measured on day 21; type: functional; details: HCT-116, 504 h, read-out: TGI
[9] = Oral bioavailability in mouse at 50 mg/kg; type: ADME, organism-based; details: in vivo
Histone deacetylase 4 = Histone deacetylase 4 (Homo sapiens, UniProt P56524); assay: Inhibition of recombinant HDAC4 by fluorimetric assay
Histone deacetylase 3 = Histone deacetylase 3 (Homo sapiens, UniProt O15379); assay: Inhibition of recombinant HDAC3 by fluorimetric assay
[10] = Cmax in mouse at 50 mg/kg, po; type: ADME, organism-based; parameters: dose 50 mg/kg, route oral; details: in vivo
HCT-116 [11] = assay: Antitumor activity against human HCT116 cells xenografted in athymic mouse assessed as tumor growth inhibition at 70 mg/kg, ip qd for 21 days measured on day 22; type: functional; details: HCT-116, ip, route intraperitoneal, read-out: TGI
COLO 205 = assay: Antiproliferative activity against human COLO205 cells after 96 hrs by celltiter assay; type: functional, cell-based; details: COLO 205, 96 h
HCT-116 [12] = assay: Antitumor activity against human HCT116 cells xenografted in athymic mouse assessed as tumor growth inhibition at 100 mg/kg, po qd for 21 days measured on day 21; type: functional; details: HCT-116, 504 h, read-out: TGI
Histone deacetylase 9 = Histone deacetylase 9 (Homo sapiens, UniProt Q9UKV0); assay: Inhibition of recombinant HDAC9 by fluorimetric assay
[13] = Lipophilicity, log D at pH 7.3; type: physicochemical; details: buffer
[14] = Solubility at pH 6.5; type: physicochemical; details: buffer

Sequence of Histone deacetylase 4 (P56524 whole entry): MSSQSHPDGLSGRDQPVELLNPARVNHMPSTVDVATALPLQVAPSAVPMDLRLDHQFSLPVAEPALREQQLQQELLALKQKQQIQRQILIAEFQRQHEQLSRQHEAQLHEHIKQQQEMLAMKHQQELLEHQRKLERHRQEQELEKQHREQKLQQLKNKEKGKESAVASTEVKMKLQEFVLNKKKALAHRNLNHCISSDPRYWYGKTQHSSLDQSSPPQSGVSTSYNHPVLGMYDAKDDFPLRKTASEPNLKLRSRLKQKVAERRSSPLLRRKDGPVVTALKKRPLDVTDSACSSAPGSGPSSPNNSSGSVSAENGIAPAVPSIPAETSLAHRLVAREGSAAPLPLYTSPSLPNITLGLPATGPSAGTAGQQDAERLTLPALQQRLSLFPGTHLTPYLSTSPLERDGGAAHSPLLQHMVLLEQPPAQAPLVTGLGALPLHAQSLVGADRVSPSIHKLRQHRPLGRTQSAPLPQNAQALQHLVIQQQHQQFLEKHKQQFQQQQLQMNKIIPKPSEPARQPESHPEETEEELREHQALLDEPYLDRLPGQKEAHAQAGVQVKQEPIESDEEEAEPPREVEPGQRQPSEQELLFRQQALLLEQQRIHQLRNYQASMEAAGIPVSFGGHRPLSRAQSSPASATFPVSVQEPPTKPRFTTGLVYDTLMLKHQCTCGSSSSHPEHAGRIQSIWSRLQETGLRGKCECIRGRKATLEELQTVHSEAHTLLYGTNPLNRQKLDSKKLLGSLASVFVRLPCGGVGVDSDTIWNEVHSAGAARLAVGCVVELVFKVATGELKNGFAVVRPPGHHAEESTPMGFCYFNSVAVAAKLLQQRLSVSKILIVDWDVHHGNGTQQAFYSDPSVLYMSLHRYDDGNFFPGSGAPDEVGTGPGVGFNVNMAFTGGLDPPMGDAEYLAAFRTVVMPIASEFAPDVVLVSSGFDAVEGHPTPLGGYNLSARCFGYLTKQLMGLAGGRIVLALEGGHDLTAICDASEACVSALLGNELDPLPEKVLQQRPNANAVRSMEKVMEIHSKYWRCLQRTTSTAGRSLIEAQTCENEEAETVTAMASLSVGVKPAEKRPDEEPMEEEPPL
Sequence of Histone deacetylase 9 (Q9UKV0 whole entry): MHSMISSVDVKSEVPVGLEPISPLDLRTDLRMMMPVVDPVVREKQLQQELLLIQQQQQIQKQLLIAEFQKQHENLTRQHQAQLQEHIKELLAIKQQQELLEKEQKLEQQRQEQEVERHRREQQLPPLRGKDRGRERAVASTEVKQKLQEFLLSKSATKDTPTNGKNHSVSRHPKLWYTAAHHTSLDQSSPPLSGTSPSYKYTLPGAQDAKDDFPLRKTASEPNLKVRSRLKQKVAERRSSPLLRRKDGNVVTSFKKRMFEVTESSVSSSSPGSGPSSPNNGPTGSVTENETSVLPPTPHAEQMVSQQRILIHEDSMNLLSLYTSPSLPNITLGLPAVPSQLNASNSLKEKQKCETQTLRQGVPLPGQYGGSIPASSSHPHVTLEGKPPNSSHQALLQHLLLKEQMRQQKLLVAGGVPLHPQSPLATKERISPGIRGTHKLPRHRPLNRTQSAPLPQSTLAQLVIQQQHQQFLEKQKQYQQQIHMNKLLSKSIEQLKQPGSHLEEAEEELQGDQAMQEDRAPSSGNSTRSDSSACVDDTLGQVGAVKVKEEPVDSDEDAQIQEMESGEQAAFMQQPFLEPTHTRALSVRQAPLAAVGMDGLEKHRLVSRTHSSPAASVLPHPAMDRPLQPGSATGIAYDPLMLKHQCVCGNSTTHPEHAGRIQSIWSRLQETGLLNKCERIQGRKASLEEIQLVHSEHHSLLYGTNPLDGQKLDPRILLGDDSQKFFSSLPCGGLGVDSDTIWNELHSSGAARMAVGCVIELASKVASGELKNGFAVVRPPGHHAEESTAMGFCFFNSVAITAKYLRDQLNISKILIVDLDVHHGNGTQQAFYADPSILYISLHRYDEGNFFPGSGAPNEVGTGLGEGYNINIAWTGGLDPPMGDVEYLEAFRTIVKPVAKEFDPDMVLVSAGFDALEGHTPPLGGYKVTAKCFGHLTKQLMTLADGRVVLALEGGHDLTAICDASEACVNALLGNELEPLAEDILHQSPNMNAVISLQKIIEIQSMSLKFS
Sequence of Histone deacetylase 5 (Q9UQL6 whole entry): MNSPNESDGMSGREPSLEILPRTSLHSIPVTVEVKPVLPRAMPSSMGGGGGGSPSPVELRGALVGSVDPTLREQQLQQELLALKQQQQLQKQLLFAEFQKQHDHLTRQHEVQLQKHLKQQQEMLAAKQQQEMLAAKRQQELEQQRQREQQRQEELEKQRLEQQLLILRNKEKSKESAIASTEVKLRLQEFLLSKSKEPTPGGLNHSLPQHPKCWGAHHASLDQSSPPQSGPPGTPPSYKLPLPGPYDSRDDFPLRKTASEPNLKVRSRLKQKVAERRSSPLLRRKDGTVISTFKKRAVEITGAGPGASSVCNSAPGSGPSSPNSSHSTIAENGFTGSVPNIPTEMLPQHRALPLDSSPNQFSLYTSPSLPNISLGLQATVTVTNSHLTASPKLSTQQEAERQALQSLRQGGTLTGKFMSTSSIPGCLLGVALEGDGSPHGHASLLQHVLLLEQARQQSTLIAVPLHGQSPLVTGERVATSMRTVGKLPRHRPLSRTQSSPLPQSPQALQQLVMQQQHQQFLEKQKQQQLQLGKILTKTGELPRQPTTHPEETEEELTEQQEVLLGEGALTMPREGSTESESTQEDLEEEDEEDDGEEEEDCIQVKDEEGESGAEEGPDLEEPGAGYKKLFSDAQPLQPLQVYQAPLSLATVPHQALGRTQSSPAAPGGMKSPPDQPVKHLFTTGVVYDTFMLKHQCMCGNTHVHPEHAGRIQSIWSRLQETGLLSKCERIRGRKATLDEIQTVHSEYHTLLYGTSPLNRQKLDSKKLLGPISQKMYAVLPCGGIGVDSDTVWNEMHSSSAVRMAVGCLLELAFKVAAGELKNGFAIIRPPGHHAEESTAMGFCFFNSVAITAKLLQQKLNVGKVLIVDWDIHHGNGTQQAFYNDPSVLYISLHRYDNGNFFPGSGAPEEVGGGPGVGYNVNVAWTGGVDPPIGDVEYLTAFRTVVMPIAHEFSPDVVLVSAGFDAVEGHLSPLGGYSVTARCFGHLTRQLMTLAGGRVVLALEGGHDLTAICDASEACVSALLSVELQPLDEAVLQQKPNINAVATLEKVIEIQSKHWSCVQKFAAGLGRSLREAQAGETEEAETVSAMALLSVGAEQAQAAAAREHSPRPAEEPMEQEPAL
Sequence of Histone deacetylase 3 (O15379 whole entry): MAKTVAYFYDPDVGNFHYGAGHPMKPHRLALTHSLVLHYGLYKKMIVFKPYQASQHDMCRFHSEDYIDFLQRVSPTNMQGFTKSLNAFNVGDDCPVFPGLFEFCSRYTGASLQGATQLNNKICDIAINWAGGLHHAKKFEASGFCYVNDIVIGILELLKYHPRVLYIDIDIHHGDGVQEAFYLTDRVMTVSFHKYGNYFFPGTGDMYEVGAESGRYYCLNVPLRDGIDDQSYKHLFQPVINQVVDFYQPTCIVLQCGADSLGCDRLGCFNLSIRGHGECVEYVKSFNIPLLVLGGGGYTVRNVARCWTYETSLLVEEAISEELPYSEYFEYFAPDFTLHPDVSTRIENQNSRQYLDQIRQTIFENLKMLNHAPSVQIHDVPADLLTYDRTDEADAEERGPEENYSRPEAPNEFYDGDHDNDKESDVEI

## O=C(/C=C/c1ccc2c(c1)nc(CCc1ccccc1)n2CCN1CCCC1)NO
[1]
  Ki: 20.6 nM
Histone deacetylase 8
  Ki: 82 nM
Mus musculus [2]
  Activity: 0.5%
HCT-116 [3]
  inhibition in vivo at 130 mg/kg: 89%
Histone deacetylase 5
  Ki: 17.2 nM
Histone deacetylase 11
  Ki: 12.8 nM
Mus musculus [4]
  Activity: Non-toxic
[5]
  MTD: 130 mg/kg
Mus musculus [6]
  Activity: 8.7%
Mus musculus [7]
  Activity: 5.7%
HCT-116 [8]
  inhibition in vivo at 200 mg/kg: 78%
[9]
  bioavailability: 13%
Histone deacetylase 4
  Ki: 9.6 nM
Histone deacetylase 3
  Ki: 12.5 nM
[10]
  Cmax: 920 nM
HCT-116 [11]
  inhibition in vivo at 70 mg/kg: 59%
COLO 205
  IC50: 140 nM
HCT-116 [12]
  inhibition in vivo at 100 mg/kg: 43%
Histone deacetylase 9
  Ki: 19.2 nM

## Cl.O=C(/C=C/c1ccc2c(c1)nc(CCc1ccccc1)n2CCN1CCCC1)NO
[13]
  logD: 2.1
[14]
  solubility: 1600 µg/mL

From ChEMBL document CHEMBL1152878, “N-Hydroxy-1,2-disubstituted-1H-benzimidazol-5-yl acrylamides as novel histone deacetylase inhibitors: design, synthesis, SAR studies, and in vivo antitumor activity” (Bioorg Med Chem Lett, 2009)
